Broadly, the pKa is the negative logarithm of the acid dissociation constant. Read a high pKa as a group that holds its proton tightly.

`[NH3+]CC(=O)NCC(=O)NCC(=O)N1CCC[C@H]1C(=O)O` yielded a pKa (acidic group) of 2.91. On to `O/N=C/c1ccccn1`, for which the pKa is 10.1 (acidic group) and 3.4 (basic group). `O=[N+]([O-])c1ccc(C2NCCS2)cc1` (centres undefined) yielded a pKa (basic group) of 4.55. The compound `Sc1ccc(Cl)c(Cl)c1` came in with a pKa (acidic group) of 5.48.

In the case of `CC(C)[C@@]12CN[C@@H](C(=O)[O-])[C@@H]1CC(=O)O2`, where the note is “basic group”, the pKa came out at 7.8. Same read-out and setting: the same measure for `Cc1ccc([N+](=O)[O-])cc1/C(=N/CCCN(C)C)c1ccccc1`: 8.8; for `Cc1cc([N+](=O)[O-])cc(C)c1N`: 0.98. As to `c1cc2nccnc2cn1`, the pKa (basic group) stood at 2.5.

In turn, `O=S(O)c1ccccc1` showed a pKa (acidic group) of 1.72.

Under “basic group”, `NCC[n+]1cc(Br)c2ccccc2c1` registered a pKa of 6.71. Take `Cc1cc2nc3ccc(N(C)C)cc3[nH+]c2cc1N`: the pKa (basic group) was determined as 0.2. Consider `O=C([O-])c1ccc(NS(=O)(=O)c2ccccc2)cc1`, for which, under “acidic group”, the pKa worked out at 7.75. Under “basic group”, `Cc1ccc(NC(=O)CN2CCCCC2)cc1` returned a pKa of 7.85. As for `CC(=O)NS(=O)(=O)c1ccc(C)cc1`, the pKa (acidic group) is 4.8. Same read-out and setting: with `Cc1cc(N(C)C)cc[n+]1O` the figure was 4.37. Regarding `Cc1ccc(CON)cc1`, the pKa (basic group) came out at 4.4. The same measure, in the same setting: the same measure for `Cc1cc(-c2ccccc2)nn(CCN2CCOCC2)c1=N`: 9.7. For the setting “acidic group”, `O=S(=O)([O-])c1ccc(O)cc1` registered a pKa of 8.91. Regarding `c1ccc2c(c1)C1CCN2c2ccccc21`, the pKa (basic group) is 4.54.

Compound `Cc1cccc(Cl)c1/C(=N/CCCN(C)C)c1ccccc1` had a pKa (basic group) of 8.8. For the compound `C[N+](C)(C)c1cccc(O)c1`, the pKa (acidic group) amounted to 8.07. The same measure, in the same setting: the same measure for `Cc1ccc(Br)cc1C(=O)O`: 3.58. Under “basic group”, `Nc1nnc(-c2ccccc2)s1` gave a pKa of 2.9.

`O=C(O)[C@@H]1CCCC[C@@H]1O` came in with a pKa (acidic group) of 4.8. Same read-out and setting: the same measure for `CC(C)CC([NH3+])C(=O)O` (centres undefined): 2.46. As to `N#CC(C#N)=NNc1ccc(CCCl)cc1`, the pKa is, setting by setting: (acidic group) 6.5; (basic group) -0.81.

Compound `O=[N+]([O-])Cc1cccc(Cl)c1` had a pKa (acidic group) of 6.63. In the case of `O=C(NCO)c1ccccc1`, where the note is “acidic group”, the pKa was found to be 13.1.

`c1ccc(-c2ccc3ccc4cccnc4c3n2)cc1` showed a pKa (basic group) of 4.9.

Regarding `C[NH+]1CCN(C(c2ccccc2)c2ccccc2)CC1`, the pKa (basic group) turned out to be 2.16.

In the case of `O=C([O-])C(CO)[NH2+]Cc1cc([N+](=O)[O-])ccc1O` (centres undefined), the pKa (acidic group) came to 6.15.

Regarding `CCOc1ccccc1/C=C\C(=O)O`, the pKa (acidic group) was 4.35. Turning to `Cc1c2ccncc2cc2c1[nH]c1ccncc12`, where the note is “basic group”, the pKa came out at 7.5. For the compound `C=CC(C)(CC)N(C)C(C)C` (centres undefined), under “basic group”, the pKa was determined as 11.3.

Turning to `O/C(=C/c1ccncc1)c1ccccc1`, the pKa runs as follows: (acidic group) 10.3; (basic group) 6.21.

The compound `O=C([O-])C[N+](=O)[O-]` came in with a pKa (acidic group) of 8.9.

For the setting “acidic group”, `C[NH2+]CCCNC(=O)/C=N/O` had a pKa of 8.61. For `Nc1ccc(Sc2ccc(N)cc2)cc1`, for the setting “basic group”, the pKa worked out at 4.25.

Under “basic group”, `Cc1nnc2c(c1C)CCC2` came in with a pKa of 5.36. The same measure, in the same setting: the same measure for `CCCCSCCN(CC)CC`: 8.43.

As to `Cc1cc(Nc2ccc(O)cc2)cc(C)c1O`, the pKa (acidic group) turned out to be 10. On to `CCCN(CCC)c1ccccc1`, for which, under “basic group”, the pKa was found to be 6.13. Regarding `O=C(/C=C1/C=CC=CN1)c1ccccc1`, the pKa (basic group) was 6.08. For the setting “acidic group”, `C/C(=N\O)C(=O)NO` came in with a pKa of 7.74. On the same count and under the same terms, with `O=[N+]([O-])c1ccccc1/C=N\O` the figure was 10.7. For the setting “basic group”, `C[NH+]1CCN(C(c2ccccc2)c2ccc(Cl)cc2)CC1` (centres undefined) came in with a pKa of 2.43. In turn, `CCCCCCCc1c(-c2ccccc2)n[nH]c1O` gave a pKa (acidic group) of 9.2. In the case of `Nc1ccc(-c2ccc(/N=C/c3ccccc3O)cc2)cc1`, the pKa amounted to 11.1 (acidic group) and 7.68 (basic group). Consider `OCCO`, for which the pKa (acidic group) is 14.

`Oc1ccc2cc(I)ccc2c1` showed a pKa (acidic group) of 9.23. For `Oc1c(I)cc(I)c2cccnc12`, the pKa by setting is: (acidic group) 8; (basic group) 2.7. `CC(=O)c1cc(C(=O)c2ccccc2)n[nH]1` returned a pKa (acidic group) of 9.01. For the setting “acidic group”, `C[NH+](C)CCCCCCCCCNC(=O)/C=N/O` registered a pKa of 8.99. For the compound `CC(=O)NS(=O)(=O)c1ccc(N)cc1`, the pKa came out at 5.35 (acidic group) and 1.58 (basic group). The compound `Oc1cccc2c1-c1cccc(O)c1-2` displayed a pKa (acidic group) of 8.35.

`CN1CCN(C(=O)c2ccccc2)CC1` showed a pKa (basic group) of 6.78. Same read-out and setting: with `c1ccc(Nc2ncnc3[nH]ncc23)cc1` the figure was 3.92. For `O=C([O-])CCc1nc2ccccc2[nH]1`, the pKa (acidic group) was 13.1 and the pKa (basic group) is 5.7. In turn, `Cc1ccccc1C(O)C(C(=O)O)c1ccc(-c2ccccc2)cc1` (centres undefined) registered a pKa (acidic group) of 4.19. Consider `Cc1ccc(N)cc1Cl`, for which, for the setting “basic group”, the pKa is 4.05. Consider `CC(C)c1nc2ccccc2[nH]1`, for which the pKa (basic group) came out at 6.23. On the same count and under the same terms, with `CCOCCn1c(CN2CCN(CCCCn3cc(C(=O)[O-])cn3)CC2)nc2ccccc21` the figure was 8. For `CO[C@H]1C[C@H]1C(=O)O`, the pKa (acidic group) came to 4.76. On the same count and under the same terms, the same measure for `O=C(O)C1CCCOC1` (centres undefined): 4.25. `O=C([O-])[C@@H]1O[C@H](Oc2cccc3ncccc23)[C@@H](O)[C@H](O)[C@H]1O`: the pKa (basic group) was determined as 4.91.

In turn, `COc1cccc(C(=N)c2ccccc2)c1` came in with a pKa (basic group) of 6.59. `CC(=O)CCC(=O)O`: for the setting “acidic group”, the pKa is 4.63. Under “basic group”, `CCOC(=O)CCCCCN` gave a pKa of 10.4. Consider `Cc1ccc(S(=O)(=O)NC(=O)OCc2ccc([N+](=O)[O-])cc2)cc1`, for which, for the setting “acidic group”, the pKa stood at 3.8. Still for that read-out and setting: with `O=C1CC(Sc2ccccc2)N1` (centres undefined) the figure was 13.3. Under “basic group”, `C[C@@H]1[C@@H]2Cc3ccc(O)cc3[C@@]1(C)CCN2CCF` showed a pKa of 8.35. Turning to `N#CC(C#N)=NNc1cccc(Cl)c1Cl`, the pKa (acidic group) amounted to 5.15 and the pKa (basic group) is -0.71. On to `O=C1CC(=O)C(=O)C1`, for which the pKa (acidic group) is 3. Consider `c1ccc2nc3ccccc3nc2c1`, for which, under “basic group”, the pKa turned out to be 1.31.

For the setting “basic group”, `C=CCN(CC=C)CCC[NH+](CC=C)CC=C` displayed a pKa of 6.96. Same read-out and setting: with `CC1(C)CC(=O)C(C)(C)N1` the figure was 7.1. For the compound `O/N=C(/NO)c1ccccc1`, the pKa runs as follows: (acidic group) 10.7; (basic group) 3.8. Under “basic group”, `Nc1ccc[nH+]c1` came in with a pKa of -1.37.

Under “basic group”, `CN(C)c1ccc(/N=N/c2ccccn2)cc1` gave a pKa of 4.5. In the case of `CCC(=O)CC(C)=O`, the pKa (acidic group) was 9.36. Turning to `Cc1ncc2nc(C)c(C)nc2n1`, for the setting “basic group”, the pKa is 3.76.

Under “acidic group”, `O=C(O)c1ccc(I)o1` yielded a pKa of 2.94. On to `Oc1ccc2ncncc2c1`, for which the pKa (acidic group) turned out to be 8.19 and the pKa (basic group) amounted to 3.12.

The compound `Cc1nnc(C)n1N` gave a pKa (acidic group) of 9.85.

In turn, `Cc1ccc(C(O)C(C(=O)O)c2ccc(C3CCCCC3)cc2)cc1` (centres undefined) showed a pKa (acidic group) of 4.18.

`CCO/C(C)=N/O` yielded a pKa (acidic group) of 11.4. Still for that read-out and setting: the same measure for `O=C(O)C[NH2+]CCc1nnn[nH]1`: 3.28. The same measure, in the same setting: the same measure for `CC1CCCC(C)C1C(=O)O` (centres undefined): 4.88; for `NNC(=O)C(F)(F)C(F)(F)C(F)(F)F`: 8.02. `CCCN(CC(O)CC)CC(O)CC` (centres undefined): the pKa (basic group) was determined as 9. The same measure, in the same setting: the same measure for `C[C@H]([NH3+])[C@@H](C)N`: 6.84.

Where the note is “acidic group”, `O=C(O)c1ccc([N+](=O)[O-])s1` came in with a pKa of 2.68. On the same count and under the same terms, the same measure for `Cn1ncnc1/N=N/O`: 4.45; for `CCCCCC/C=N/O`: 11.6. Turning to `O=C(O)CCc1ccco1`, the pKa (acidic group) is 4.36. Compound `N/C=N/O` showed a pKa (basic group) of 5.05. For `O=C1C[C@H](C(=O)O)[C@@H](C(=O)[O-])O1`, the pKa (acidic group) came out at 3.82. Still for that read-out and setting: with `Oc1cn[nH+]c2ccccc12` the figure was -0.35; with `CC(=O)c1ccc(O)c(O)c1`, 7.8. Consider `CCCCCC(C)(C)N`, for which the pKa (basic group) amounted to 10.8. For `O=C1COC(=O)N1`, the pKa (acidic group) is 5.84. `Clc1ccnc(-c2ccccn2)c1` gave a pKa (basic group) of 3.8. `Cc1cc(Nc2ccc([O-])cc2)cc(C)c1O`: where the note is “acidic group”, the pKa came to 10.9.

For `COc1ccc(C(=S)Nc2ccc(Cl)cc2)cc1`, where the note is “acidic group”, the pKa came to 10.9. In the case of `CCCCNc1ncnc2c1cnn2C`, the pKa (basic group) stood at 4.22.

`CC1(C)S[C@H]2C(C(=O)[O-])[NH+]=C(CCCC([NH3+])C(=O)[O-])N2C1C(=O)O` (some centres undefined) registered a pKa (acidic group) of 3.1. Take `OCc1ccncc1`: under “basic group”, the pKa came to 5.41. In turn, `Cc1ccc(N)cc1Br` registered a pKa (basic group) of 4.02. The same measure, in the same setting: the same measure for `CN1CCC1`: 10.4. Take `Nc1cc2ccccc2cn1`: the pKa (basic group) was 5.05. Take `CN1CCCCC1`: for the setting “basic group”, the pKa is 10.1.

`Clc1ccc(Nc2ccccc2)cc1` yielded a pKa (basic group) of 0.

For the compound `Cc1nn(C)c2c1C(c1ccccc1F)=NCC(=O)N2C`, the pKa (basic group) turned out to be 4.69. Consider `NC(=O)CCCCCCCCC(=O)NO`, for which the pKa (acidic group) was determined as 9.49.

Regarding `CC1CC2CCN1CC2` (centres undefined), where the note is “basic group”, the pKa came to 11.3. The same measure, in the same setting: the same measure for `CC[NH+](CC)CCOCCN(C)C`: 8.4.

With `Cc1ccc(NC=S)cc1`, for the setting “acidic group”, the pKa came to 11.6. The compound `C1CSCCN1` yielded a pKa (basic group) of 9.05.

Consider `[NH3+]C(c1cccc(O)c1[O-])P(=O)([O-])[O-]` (centres undefined), for which, under “acidic group”, the pKa was 12.4. Where the note is “basic group”, `CN1CSC[C@H]1C(=O)[O-]` came in with a pKa of 6.6. `C[C@@H]1CCCC[C@@H]1C(=O)O`: the pKa (acidic group) turned out to be 5.04. As for `c1ccc(CSc2nc(SCc3ccccc3)c(-c3ccccc3)[nH]2)cc1`, the pKa reads like this: (acidic group) 10.9; (basic group) 2.7. Regarding `O=C(O)C1c2ccccc2Oc2ccccc21`, the pKa (acidic group) amounted to 3.89.

`COc1cc(OC)c2c(c1Cl)O[C@]1(C(=O)CC(=O)C[C@@H]1C)C2=O` displayed a pKa (acidic group) of 4.49. `CC(=O)N=C(N(C)C)N(C)C` had a pKa (basic group) of 7.5. `CC1CCCC/C1=N\CC(=O)[O-]` (centres undefined) yielded a pKa (basic group) of 9.64. Where the note is “basic group”, `Nc1ccnc2cc(Cl)ccc12` registered a pKa of 8.22. `O=C1[C@H]2CCCC[C@H]2C(=O)N1O`: under “acidic group”, the pKa turned out to be 6.

Regarding `S=C(NC(=S)c1ccccc1)Nc1ccccc1`, for the setting “acidic group”, the pKa is 10.7. On the same count and under the same terms, the same measure for `Fc1cccc(NC(=S)c2cccc(Br)c2)c1`: 10. `C1CCN2C[C@@H]3C[C@@H](CN4CCCC[C@@H]34)[C@H]2C1` showed a pKa (basic group) of 11.3. `Nc1nc2cccc[n+]2o1`: the pKa (acidic group) turned out to be 7.18. Turning to `c1cc(-c2nn[nH]n2)cc(-c2nnn[nH]2)c1`, the pKa (acidic group) stood at 3.38.

(Values after the pKa sets of Baltruschat and Czodrowski (2020).)
